According to patent EP0415456A2, “Xanthine compounds” (priority 1989, dated 1991):
Where two headings read alike, the source gives them in different places.

How the values were obtained:
[1] = test system: death induced by Platelet-Activating Factor (PAF); assay: effect of inhibiting death induced by Platelet-Activating Factor (PAF); format: in vivo; settings: Mus musculus; oral, dd strain mice, 40 µg/kg PAF i.v. 1 hour after administration; highest dose 100 mg/kg; read-out: MED (mg/kg) for Inhibiting Death Induced by PAF
Procedure: A test compound (100 mg/kg) was orally administered to dd strain mice (male animals, 28 to 32g) and 40 µg/kg of PAF (manufactured by Avanti Polar Lipids Co.) was administered via tail veins 1 hour after the administration according to the method of Carlson et al. [Agents and Actions, 21, 379 (1987)]. The mortality rates of compound-treated groups were compared with those of matched control groups, assessed during the same experimental session, by the Fisher's exact probability test. The cases wherein the level of significance (p value) is 0.05 or less are considered to be effective with respect to the inhibition. The above procedure was repeated, using the test compound in a decreasingly small quantity so as to find out the Minimum Effective Dosage (MED) wherein […] be observed between the test and control groups.

[2] = test system: zig-zag strips of the trachea; assay: effects on passive Schultz-Dale reaction (antigen-induced contraction of sensitized trachea strips); parameters: species or system guinea pigs; settings: Cavia porcellus, read-out: Passive S-D Reaction IC₅₀
Procedure: After 24 hours, the guinea pigs were stunned and exsanguinated, and then trachea were removed. The zig-zag strips of the trachea were prepared by the method of Emmerson, et al. [J. Pharm. […] The strips were suspended in Krebs-Henseleit solution at 37°C […] Antigen (EWA) was then introduced in the solution (final concentration; 1μg/ml), and the contraction was measured by […] After the contraction reached stable plateau, the compounds were cumulatively added in order to get concentration-relaxation curves. […]

[3] = test system: glycerol-induced renal failure model; assay: renal-protecting effect (glycerol-induced renal failure model); format: in vivo; settings: male Wistar rats; for suppression of increases of the serum creatinine and of urine-nitrogen: 0.01 - 10 mg/kg i.p., 24 hours after 50% glycerol s.c. (p < 0.05); for pathological examination of removed kidneys: state of kidneys: i.p., left kidney removed 24 hours after 50% glycerol s.c.
Procedure: A renal failure is a state wherein the renal function is lowered and the homeostasis of a body fluid can be no more maintained. It is known that an acute renal failure characteristic of uriniferous tubule disorder is caused by subcutaneous or intramuscular injection of glycerol to rats [Can. J. Physiol.
Male Wistar rats were kept deprived or water for 18 hours, and served for the test. A test compound was intraperitoneally administered to the rats (dosage: 1 mℓ/kg) and the rats were anesthetized with ether and 50% glycerol was subcutaneously administered (dosage: 0.8mℓ/100g) to the rats, pinching the dorsal skin. Twenty four hours after the administration of glycerol, the rats were anesthetized with ether and 5 mℓ of blood were collected from the abdominal aorta. The collected blood was allowed to stand for 30 minutes or longer and then centrifuged at 3,000 rpm for 10 minutes, and the amounts of the serum creatinine and urine-nitrogen (UN) contained in the serum were determined by auto analyzer (Olympus AU510) or measured by a creatinine test Wako (Jaffé method) and UN Test Wako (diacetylmonooxime direct method). Both are manufactured by Wako Pure Chemicals Co.
On the other hand, the left kidneys of the blood-sampled rats were removed and placed in formalin-filled vial bottles, and used as samples for the pathological examination.

[4] = test system: Wistar rats; assay: diuretic effect; format: in vivo; settings: 25 mg/kg oral, urine collected for 6 hours; for Increase in K⁺ excretion (%) / Increase in Na⁺excretion (%) / Increase in Urine (%): relative to control; for Na⁺/K⁺: relative value of control (control 1.00)
Procedure: Wistar rats (male: 150 - 300 g) were starved for 18 hours prior to the administration of the test compounds. […] Urine was collected for 6 hours after the administration. Urine volume was measured and the electrolytes (Na+ and K+) in the urine were determined with a flame photome[…], Hitachi Ltd., Japan). All parameters are expressed as relative values of control.

[5] = biological target: T1, A₂ receptor (Rattus norvegicus, UniProt P30543); assay: Adenosine A2 receptor binding (3H-NECA binding); settings: for inhibition at 10 µM / inhibition at 100 µM: read-out: A₂ Receptor Inhibition (%)
T1 construct: A precipitate was prepared from rat corpus striatum; from tissue; host or cells: rat corpus striatum membrane preparation
Procedure: A precipitate was prepared from rat corpus striatum in a similar manner as in 1) above. The precipitate was suspended by adding a 50 mM Tris HCl buffer containing 10 mM magnesium chloride and 0.02 unit/mg (tissue) of adenosine deaminase (manufactured by Sigma Co.) to adjust the concentration of tissue to 5 mg (wet weight)/mℓ.
The mixture was incubated at 25°C within 120 minutes. The resulting mixture was treated in the same manner as in 1) above to determine its radioactivity.
The inhibition rate of the test compound against the binding of A₂ receptor (³H-NECA binding) was calculated from the following equation: [formula]

[6] = biological target: T2, Adenosine A₁ Receptor (Cavia porcellus, UniProt P47745); assay: Adenosine A1 receptor binding (3H-CHA binding); parameters: species or system guinea pig; settings: guinea pig cerebrum; for inhibition at 100 µM: concentration of tested compound 10⁻⁴ M; for inhibition at 100 µM / inhibition at 10 µM: ³H-CHA 1.1 nM; for inhibition at 10 µM: concentration of tested compound 10⁻⁵ M
T2 construct: from tissue; host or cells: guinea pig cerebrum membrane preparation
T2 sequence (P47745 1-326): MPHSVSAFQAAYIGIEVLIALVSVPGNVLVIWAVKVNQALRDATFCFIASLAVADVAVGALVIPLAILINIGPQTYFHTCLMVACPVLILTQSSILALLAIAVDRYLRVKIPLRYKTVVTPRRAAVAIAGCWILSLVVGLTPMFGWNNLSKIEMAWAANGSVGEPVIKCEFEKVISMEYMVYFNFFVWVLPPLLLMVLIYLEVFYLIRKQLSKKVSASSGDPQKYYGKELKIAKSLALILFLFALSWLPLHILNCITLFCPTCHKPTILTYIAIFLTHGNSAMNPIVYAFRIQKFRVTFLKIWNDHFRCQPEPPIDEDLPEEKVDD
Procedure: Cerebrum of a guinea pig was suspended into ice cooled 50 mM tris hydroxymethyl aminomethane hydrochloride (Tris HCl) buffer (pH = 7.7), by using Polytron homogenizer (manufactured by Kinematica Co.). The suspension was centrifuged (50,000 x g, 10 minutes), and the precipitate was resuspended by adding the same volume of 50 mM Tris HCl buffer. The suspension was centrifuged under the same conditions, and the precipitate obtained was suspended once again by adding 10 volumes of 50 mM Tris HCl. The tissue suspension was incubated at 37°C for 30 minutes in the presence of 0.02 units/mg tissue of adenosine deaminase (manufactured by Sigma Co.). The resulting tissue suspension was recentrifuged (50,000 x g, 10 minutes), and 50 mM Tris HCl was added to the precipitate to adjust the concentration of tissue to 10 mg (wet weight)/mℓ.
The mixture was incubated at 25°C for 90 minutes, and the resulting reaction was stopped by rapid vacuum filtration through a glass fiber filter (GF/C manufactured by Whatman Co.) followed by immediately washing three times with 5 mℓ each of ice cold 50 mM Tris HCl buffer. […] Its radioactivity was then determined by a scintillation counter (manufactured by Packard Instrument Co.).
The inhibition rate of the test compounds against the binding of A₁ […] (³H-CHA binding) was calculated from the following equation: [formula]
• 1. […] The inhibition constant (Ki value) shown in the table was calculated from Cheng-Prusoff's equation.

[7] = test system: male dd-strain mice; assay: acute toxicity test; format: in vivo; settings: mouse, in vivo, 10080 min
Procedure: […]. The Minimum lethal dose (MLD) of the compounds was determined by observing whether or not the mice were alive after 7 days of the administration.

[8] = concentration to produce 50% relaxation of EWA (1µg/mℓ)-contracted trachea strips of passively sensitized guinea pigs

T1 sequence (P30543 whole entry): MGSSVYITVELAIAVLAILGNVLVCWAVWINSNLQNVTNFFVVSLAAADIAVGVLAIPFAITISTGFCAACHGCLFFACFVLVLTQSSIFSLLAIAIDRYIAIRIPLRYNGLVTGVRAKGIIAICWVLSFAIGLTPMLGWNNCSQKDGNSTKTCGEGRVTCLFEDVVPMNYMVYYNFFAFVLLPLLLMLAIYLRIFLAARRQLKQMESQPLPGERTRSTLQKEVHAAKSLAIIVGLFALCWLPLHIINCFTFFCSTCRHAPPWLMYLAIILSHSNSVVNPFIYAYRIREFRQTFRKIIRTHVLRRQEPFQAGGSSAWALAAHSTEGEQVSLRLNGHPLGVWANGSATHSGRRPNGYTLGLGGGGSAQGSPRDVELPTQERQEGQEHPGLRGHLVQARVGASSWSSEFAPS

Row | Compound | minimal effective dose [1] [mg/kg] | IC50 [2, 8] [nM] | suppression of increases of the serum creatinine and of urine-nitrogen [3] | pathological examination of removed kidneys: state of kidneys [3] | Increase in K⁺ excretion (%) [4] [%] | Increase in Na⁺excretion (%) [4] [%] | Increase in Urine (%) [4] [%] | Na⁺/K⁺ [4] | inhibition at 10 µM [5] [%] | inhibition at 100 µM [5] [%] | Ki ([6]; calculated from Cheng-Prusoff's equation, ³H-CHA) [nM] | inhibition at 100 µM [6] [%] | inhibition at 10 µM [6] [%] | Minimum lethal dose (MLD) [7] | Ki ([5]; ³H-NECA with CPA, rat corpus striatum, read-out: A₂ Receptor Ki) [nM] | IC50 [2] [nM]
1 | CCCn1c(=O)c2[nH]c(C(C)Cc3ccncc3)nc2n(CCC)c1=O (stereo not drawn) [Compound 7, 8-[1-methyl-2-(4-pyridyl)ethyl]-1,3-dipropylxanthine] | > 100 | 2700 | significantly suppressed | significantly improved | – | – | – | – | – | – | – | – | – | – | – | –
2 | CCCn1c(=O)c2[nH]c(C(C)Cc3csc(C)n3)nc2n(CCC)c1=O (stereo not drawn) [Compound 8, 8-[1-Methyl-2-(2-methylthiazol-4-yl)ethyl]-1,3-dipropylxanthine] | 100 | 880 | significantly suppressed | significantly improved | 22 | 138 | 82 | 1.95 | – | – | – | – | – | – | – | –
3 | CCCn1c(=O)c2[nH]c(C34CC5CC(CC(C5)C3)C4)nc2n(CCC)c1=O [Compound 13, 8-(Adamantan-1-yl)-1,3-dipropylxanthine] | – | – | significantly suppressed | significantly improved | 37 | 186 | 129 | 2.09 | 63 | 71 | 7.8 | 100 | 100 | more than 300 mg/kg | – | –
4 | CCCn1c(=O)c2[nH]c(C34CC5CC(CC3C5)C4)nc2n(CCC)c1=O [Compound 14, 8-(Noradamantan-3-yl)-1,3-dipropylxanthine] | – | – | significantly suppressed | significantly improved | 68 | 244 | 315 | 2.05 | 63 | 77 | – | 101 | 101 | more than 300 mg/kg | 380 | –
5 | CCCn1c(=O)[nH]c(=O)c2[nH]c(C34CC5CC(CC3C5)C4)nc21 [Compound 25, 8-(Noradamantan-3-yl)-3-propylxanthine] | – | 17300 | significantly suppressed | significantly improved | – | – | – | – | – | – | – | – | – | – | – | –
6 | CCCn1c(=O)[nH]c(=S)c2[nH]c(C34CC5CC(CC3C5)C4)nc21 [Compound 26, 8-(Noradamantan-3-yl)-3-propyl-6-thioxanthine] | – | 22700 | – | – | – | – | – | – | – | – | – | – | – | – | – | –
7 | Cn1c(=O)c2[nH]cnc2n(C)c1=O [Theophylline, 1,3-dimethylxanthine, reference compound] | 100 | – | – | – | – | – | – | – | – | – | – | – | – | – | – | 23000
